From PMC7098856 (British Journal of Clinical Pharmacology, 2020)
Several values for one entry are separate records, joined by “and”; a condition that tells them apart may be missing. Equal values may be shown once. Read-outs that look alike come from different tables or passages of the source.

Key:
[1] = assay type: in vivo, patients with advanced solid tumours; settings: for CL/F: geometric mean (CV%)
[2] = Safety and tolerability; assay type: in vivo, patients with advanced solid tumours; settings: both arms; talazoparib alone or together with itraconazole or rifampicin
[3] = Phase 1 dose escalation study; cited from earlier work
[4] = assay type: in vivo, patients with advanced solid tumours; settings: for CL/F / variability of talazoparib Cmax: Arm B; for CL/F: geometric mean (CV%)
[5] = cited from earlier work
[6] = cited from earlier work; remark: listed apart in the source
[7] = test system: breast cancer resistance protein; settings: in vitro; cited from earlier work
[8] = population PK, cited from earlier work
[9] = Safety and tolerability; assay type: in vivo, patients with advanced solid tumours; settings: whole Arm B
[10] = cited from earlier work; remark: listed apart in the source
[11] = test system: P‐glycoprotein (P‐gp); settings: in vitro; cited from earlier work
[12] = test system: enzymes or transporters; settings: at therapeutic exposures; cited from earlier work
[13] = coadministration of itraconazole
[14] = talazoparib + itraconazole vs talazoparib alone
[15] = talazoparib + rifampicin vs talazoparib alone
[16] = talazoparib + rifampicin vs talazoparib alone, listed as talazoparib
[17] = based on urinary excretion data, single 1 mg oral dose

Cn1ncnc1[C@H]1c2n[nH]c(=O)c3cc(F)cc(c23)N[C@@H]1c1ccc(F)cc1 [Talazoparib, talazoparib]
AUClast, adjusted geometric mean ([1]; Arm A talazoparib alone (reference), mixed effects model): 98,532.3 h pg/mL | CL/F ([1]; Arm A, single oral 0.5 mg talazoparib + itraconazole): 12 3.3 (36.0) L/h | Tmax ([1]; Arm A, single oral 0.5 mg talazoparib + itraconazole, median (range)): 15 1.0 (0.5–4.0) h | CL/F ([1]; Arm A, single oral 0.5 mg talazoparib alone): 18 4.6 (42.0) L/h | increase in talazoparib AUCinf relative to talazoparib alone [1, 13]: ~ 56% and 56% | increase in talazoparib Cmax relative to talazoparib alone [1, 13]: ~ 40% and 40% | AUC(0-inf) ([1]; human, plasma, oral, 0.5 mg): 110 ng·h/mL | Cmax ([1]; human, plasma, oral, 0.5 mg): 2.09 ng/mL | Cmax ([1]; human, plasma, po, 0.5 mg): 2.09 ng/mL | Vd/F ([1]; human, plasma, po, 0.5 mg): 645 L | half-life ([1]; human, plasma, po, 0.5 mg): 101 h | AUCinf geometric mean ratio (test/reference), % (90% CI) [1, 14]: 156.2 (137.6, 177.4) % | AUClast geometric mean ratio (test/reference), % (90% CI) [1, 14]: 150.7 (136.5, 166.4) % | Cmax geometric mean ratio (test/reference), % (90% CI) [1, 14]: 139.9 (113.3, 172.9) % | overall tolerability [2]: generally well tolerated | maximum tolerated dose (MTD) [3]: 1 mg once daily (QD) | CL/F ([4]; single oral 1.0 mg talazoparib + rifampicin): 12 5.2 (36.0) L/h | CL/F ([4]; single oral 1.0 mg talazoparib alone): 17 4.8 (34.0) L/h | variability of talazoparib Cmax ([4]; talazoparib alone): 53% | variability of talazoparib Cmax ([4]; with rifampicin administration): 71% | increase in talazoparib Cmax relative to talazoparib alone ([4]; coadministration of rifampicin): approximately 37% | Cmax ([4]; human, plasma, oral, 1 mg): 6.01 ng/mL | Cmax ([4]; human, plasma, po, 1 mg): 6.01 ng/mL | Tmax ([4]; human, plasma, po, 1 mg): 1 h | Vd/F ([4]; human, plasma, po, 1 mg): 624 L | half-life ([4]; human, plasma, po, 1 mg): 92.1 h | AUCinf geometric mean ratio (test/reference), % (90% CI) [4, 15]: 102.0 (94.0, 110.7) % | AUClast geometric mean ratio (test/reference), % (90% CI) [4, 15]: 105.4 (98.0, 113.2) % | Cmax geometric mean ratio (test/reference), % (90% CI) [4, 15]: 136.6 (103.2, 180.9) % | AUCinf geometric mean ratio (test/reference), % (90% CI) [4, 16]: 102.0% | Cmax geometric mean ratio (test/reference), % (90% CI) [4, 16]: 136.6% | patients who permanently discontinued treatment due to a haematological AE [5]: 1.4% | progression-free survival vs physician's choice of chemotherapy [5]: statistically significant and clinically meaningful improvement | patients with Grade 3–4 AEs (primarily haematological) ([5]; patients on talazoparib): 55% | absolute bioavailability [6, 17]: at least 54.6% | fraction absorbed [6, 17]: at least 68.7% | hepatic metabolism [6]: minimal | major elimination pathway [6]: renal excretion of unchanged talazoparib | substrate for breast cancer resistance protein [7]: substrate | increase in relative bioavailability of talazoparib by potent P-gp inhibitors ([8]; data pooled from multiple clinical trials): 45% | increase in relative bioavailability of talazoparib by potent P-gp inhibitors ([8]; first-in-human, Phase 2 and 3 studies): 44.7% | patients who discontinued treatment due to AEs [9]: 11.8% | patients who discontinued treatment due to study-drug related AE [9]: 5.9% | effect of food on talazoparib AUCinf [10]: no effect | effect of food on talazoparib Cmax [10]: reduced | substrate for P-gp [11]: substrate | induction or inhibition of enzymes or transporters [12]: does not markedly induce or inhibit
